Data as given in US10765114B2, “4-amino-6-(pyridyl and 2-substitutedphenyl)-picolinates and 6-amino-2-(pyridyl and 2-substitutedphenyl)-pyrimidine-4-carboxylates and their use as herbicides” (Dow AgroSciences LLC, priority 2013, dated 2020).

These compounds were tested on Key Grass and Sedge Weeds as well as Grass Crops (assay: Post-Emergent Test II (Table 6)). Details: post-emergence, 336 h, CYPSS, 140 g ai/ha, 14 days after application, read-out: Visual Growth Reduction (%) 14 Days After Application CYPSS.
Assay type: in vivo
Summary of the method: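 Post-emergence greenhouse spray, 1st-2nd true leaf stage; track sprayer, 187 L/ha; acetone/DMSO stock diluted in aqueous acetone/IPA/DMSO with Atplus 411F and Triton X-155; rates 1× to 1/16×; subirrigated; visual injury 0 (none) to 100% (complete kill) at 14 days.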
`COc1c(-c2cc(N)c(Cl)c(C(=O)O)n2)ccc(Cl)c1F` [Compound 84, 4-amino-3-chloro-6-(4-chloro-3-fluoro-2-methoxyphenyl)picolinic acid] showed a pest or weed control at 140 g/ha of 0 to 29%.

Same assay, conditions: post-emergence, 336 h, DIGSA: crabgrass (Digitaria sanguinalis), 70 g ai/ha, 14 days after application, read-out: Visual Growth Reduction (%) 14 Days After Application DIGSA
`COc1c(-c2cc(N)c(Cl)c(C(=O)O)n2)ccc(Cl)c1F` [Compound 84, 4-amino-3-chloro-6-(4-chloro-3-fluoro-2-methoxyphenyl)picolinic acid] showed a pest or weed control at 70 g/ha of 0 to 29%.

Same assay, conditions: post-emergence, 336 h, DIGSA: crabgrass (Digitaria sanguinalis), 140 g ai/ha, 14 days after application, read-out: Visual Growth Reduction (%) 14 Days After Application DIGSA
`COc1c(-c2cc(N)c(Cl)c(C(=O)O)n2)ccc(Cl)c1F` [Compound 84, 4-amino-3-chloro-6-(4-chloro-3-fluoro-2-methoxyphenyl)picolinic acid] gave a pest or weed control at 140 g/ha of 0 to 29%.

Same assay, conditions: post-emergence, 336 h, ECHSS, 70 g ai/ha, 14 days after application, read-out: Visual Growth Reduction (%) 14 Days After Application ECHSS
`COc1c(-c2cc(N)c(Cl)c(C(=O)O)n2)ccc(Cl)c1F` [Compound 84, 4-amino-3-chloro-6-(4-chloro-3-fluoro-2-methoxyphenyl)picolinic acid] was tested, and the pest or weed control at 70 g/ha was 0 to 29%.

Same assay, conditions: post-emergence, 336 h, ECHSS, 140 g ai/ha, 14 days after application, read-out: Visual Growth Reduction (%) 14 Days After Application ECHSS
In the case of `COc1c(-c2cc(N)c(Cl)c(C(=O)O)n2)ccc(Cl)c1F` [Compound 84, 4-amino-3-chloro-6-(4-chloro-3-fluoro-2-methoxyphenyl)picolinic acid], the pest or weed control at 140 g/ha is reported as 0 to 29%.

Same assay, conditions: post-emergence, 336 h, ORYSS (crop), 70 g ai/ha, 14 days after application, read-out: Visual Growth Reduction (%) 14 Days After Application ORYSS
In the case of `COc1c(-c2cc(N)c(Cl)c(C(=O)O)n2)ccc(Cl)c1F` [Compound 84, 4-amino-3-chloro-6-(4-chloro-3-fluoro-2-methoxyphenyl)picolinic acid], the pest or weed control at 70 g/ha is reported as 0 to 29%.

Same assay, conditions: post-emergence, 336 h, ORYSS (crop), 140 g ai/ha, 14 days after application, read-out: Visual Growth Reduction (%) 14 Days After Application ORYSS
Compound `COc1c(-c2cc(N)c(Cl)c(C(=O)O)n2)ccc(Cl)c1F` [Compound 84, 4-amino-3-chloro-6-(4-chloro-3-fluoro-2-methoxyphenyl)picolinic acid] has a pest or weed control at 140 g/ha of 0 to 29%.

Same assay, conditions: post-emergence, 336 h, SETFA: giant foxtail (Setaria faberi), 70 g ai/ha, 14 days after application, read-out: Visual Growth Reduction (%) 14 Days After Application SETFA
For `COc1c(-c2cc(N)c(Cl)c(C(=O)O)n2)ccc(Cl)c1F` [Compound 84, 4-amino-3-chloro-6-(4-chloro-3-fluoro-2-methoxyphenyl)picolinic acid], the pest or weed control at 70 g/ha was 0 to 29%.

Same assay, conditions: post-emergence, 336 h, SETFA: giant foxtail (Setaria faberi), 140 g ai/ha, 14 days after application, read-out: Visual Growth Reduction (%) 14 Days After Application SETFA
Work on `COc1c(-c2cc(N)c(Cl)c(C(=O)O)n2)ccc(Cl)c1F` [Compound 84, 4-amino-3-chloro-6-(4-chloro-3-fluoro-2-methoxyphenyl)picolinic acid] yielded a pest or weed control at 140 g/ha of 0 to 29%.

Same assay, conditions: post-emergence, 336 h, SORVU: grain sorghum (Sorghum vulgare), 70 g ai/ha, 14 days after application, read-out: Visual Growth Reduction (%) 14 Days After Application SORVU
`COc1c(-c2cc(N)c(Cl)c(C(=O)O)n2)ccc(Cl)c1F` [Compound 84, 4-amino-3-chloro-6-(4-chloro-3-fluoro-2-methoxyphenyl)picolinic acid] was tested, and the pest or weed control at 70 g/ha was 0 to 29%.

Same assay, conditions: post-emergence, 336 h, SORVU: grain sorghum (Sorghum vulgare), 140 g ai/ha, 14 days after application, read-out: Visual Growth Reduction (%) 14 Days After Application SORVU
`COc1c(-c2cc(N)c(Cl)c(C(=O)O)n2)ccc(Cl)c1F` [Compound 84, 4-amino-3-chloro-6-(4-chloro-3-fluoro-2-methoxyphenyl)picolinic acid] was tested, and the pest or weed control at 140 g/ha was 0 to 29%.

Same assay, conditions: post-emergence, 336 h, TRZSS (crop), 70 g ai/ha, 14 days after application, read-out: Visual Growth Reduction (%) 14 Days After Application TRZSS
With `COc1c(-c2cc(N)c(Cl)c(C(=O)O)n2)ccc(Cl)c1F` [Compound 84, 4-amino-3-chloro-6-(4-chloro-3-fluoro-2-methoxyphenyl)picolinic acid] the pest or weed control at 70 g/ha was 0 to 29%.

Same assay, conditions: post-emergence, 336 h, TRZSS (crop), 140 g ai/ha, 14 days after application, read-out: Visual Growth Reduction (%) 14 Days After Application TRZSS
For `COc1c(-c2cc(N)c(Cl)c(C(=O)O)n2)ccc(Cl)c1F` [Compound 84, 4-amino-3-chloro-6-(4-chloro-3-fluoro-2-methoxyphenyl)picolinic acid], the pest or weed control at 140 g/ha was 0 to 29%.

Same assay, conditions: post-emergence, 336 h, ZEAMX: maize, corn (Zea mays), 70 g ai/ha, 14 days after application, read-out: Visual Growth Reduction (%) 14 Days After Application ZEAMX
Compound `COc1c(-c2cc(N)c(Cl)c(C(=O)O)n2)ccc(Cl)c1F` [Compound 84, 4-amino-3-chloro-6-(4-chloro-3-fluoro-2-methoxyphenyl)picolinic acid] has a pest or weed control at 70 g/ha of 0 to 29%.

Same assay, conditions: post-emergence, 336 h, ZEAMX: maize, corn (Zea mays), 140 g ai/ha, 14 days after application, read-out: Visual Growth Reduction (%) 14 Days After Application ZEAMX
Compound `COc1c(-c2cc(N)c(Cl)c(C(=O)O)n2)ccc(Cl)c1F` [Compound 84, 4-amino-3-chloro-6-(4-chloro-3-fluoro-2-methoxyphenyl)picolinic acid] has a pest or weed control at 140 g/ha of 0 to 29%.
